Data taken from ChEMBL document CHEMBL4665632, “Design, synthesis and biological evaluation of pyridone-aminal derivatives as MNK1/2 inhibitors” (Bioorg Med Chem, 2019).

Key:
K562 = assay: Antiproliferative activity against human K562 cells assessed as reduction in cell viability incubated for 72 hrs by MTT assay; assay type: functional, cell-based; details: K562, 72 h
[1] = molecular target: T1, MAP kinase-interacting serine/threonine-protein kinase 1 (Homo sapiens, UniProt Q9BUB5); assay: Inhibition of MNK1 (unknown origin) at 100 nM incubated for 60 mins by HTRF assay
Target sequence in this assay (Q9BUB5 whole entry, looked up): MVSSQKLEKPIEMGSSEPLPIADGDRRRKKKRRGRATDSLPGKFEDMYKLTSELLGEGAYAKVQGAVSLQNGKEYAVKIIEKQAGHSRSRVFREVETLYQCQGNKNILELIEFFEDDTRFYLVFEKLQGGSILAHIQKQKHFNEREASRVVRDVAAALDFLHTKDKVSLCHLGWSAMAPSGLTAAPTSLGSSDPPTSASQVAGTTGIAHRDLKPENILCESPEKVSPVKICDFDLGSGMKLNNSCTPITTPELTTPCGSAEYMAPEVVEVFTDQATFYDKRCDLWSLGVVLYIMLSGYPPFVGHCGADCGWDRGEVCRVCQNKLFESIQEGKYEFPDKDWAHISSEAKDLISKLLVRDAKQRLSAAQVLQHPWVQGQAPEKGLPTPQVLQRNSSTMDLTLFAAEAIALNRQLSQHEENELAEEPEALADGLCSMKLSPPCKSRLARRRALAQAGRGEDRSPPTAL

A549 = assay: Antiproliferative activity against human A549 cells assessed as reduction in cell viability incubated at 20 uM for 72 hrs by MTT assay relative to control; assay type: functional
TMD8 = assay: Antiproliferative activity against human TMD8 cells assessed as reduction in cell viability incubated for 72 hrs by MTT assay; assay type: functional, cell-based; details: TMD8, 72 h
[2] = molecular target: T2, MAP kinase-interacting serine/threonine-protein kinase 2 (Homo sapiens, UniProt Q9HBH9); assay: Inhibition of MNK2 (unknown origin) at 100 nM incubated for 60 mins by HTRF assay
Target sequence in this assay (Q9HBH9 whole entry, looked up, the tested form may be a part): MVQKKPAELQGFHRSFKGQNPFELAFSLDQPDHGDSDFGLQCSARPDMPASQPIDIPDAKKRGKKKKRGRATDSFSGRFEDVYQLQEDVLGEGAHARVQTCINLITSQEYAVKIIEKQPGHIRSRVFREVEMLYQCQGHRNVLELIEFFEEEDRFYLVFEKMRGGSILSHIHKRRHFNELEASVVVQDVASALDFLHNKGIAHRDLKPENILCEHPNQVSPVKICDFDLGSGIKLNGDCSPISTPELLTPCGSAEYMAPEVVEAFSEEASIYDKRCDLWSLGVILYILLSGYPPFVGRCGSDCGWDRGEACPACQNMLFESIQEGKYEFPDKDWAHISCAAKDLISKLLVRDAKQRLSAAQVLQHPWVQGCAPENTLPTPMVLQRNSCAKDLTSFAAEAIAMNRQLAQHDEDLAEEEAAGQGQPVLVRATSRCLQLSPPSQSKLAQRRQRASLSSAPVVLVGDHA

[3] = molecular target: T2, MAP kinase-interacting serine/threonine-protein kinase 2; assay: (§1) Inhibition of recombinant human N-terminal GST-tagged MNK2 (1 to 465 residues) expressed in baculovirus expression system using TATKSGSTTKNR as substrate preincubated for 10 mins followed by ATP addition and measured after 40 mins by luminescence based assay
Target sequence in this assay (Q9HBH9 whole entry, the tested form may be a part): as the sequence (Q9HBH9 whole entry, looked up, the tested form may be a part) above

[4] = molecular target: T1, MAP kinase-interacting serine/threonine-protein kinase 1; assay: (§2) Inhibition of recombinant human N-terminal DYKDDDDK-tagged MNK1(1 to 424 residues) expressed in baculovirus expression system using TATKSGSTTKNR as substrate preincubated for 10 mins followed by ATP addition and measured after 40 mins by luminescence based assay
Target sequence in this assay (Q9BUB5 whole entry): as the sequence (Q9BUB5 whole entry, looked up) above

[5] = Antiproliferative activity against […] cells assessed as reduction in cell viability at 20 uM incubated for 72 hrs by MTT assay relative to control; assay type: functional, Mus musculus
MV4-11 = assay: Antiproliferative activity against human MV4-11 cells assessed as reduction in cell viability incubated for 72 hrs by MTT assay; assay type: functional, cell-based; details: MV4-11, 72 h
HCT-116 = assay: Antiproliferative activity against human HCT-116 cells assessed as reduction in cell viability at 20 uM incubated for 72 hrs by MTT assay relative to control; assay type: functional
MDA-MB-435 = assay: Antiproliferative activity against human MDA-MB-435 cells assessed as reduction in cell viability at 20 uM incubated for 72 hrs by MTT assay relative to control; assay type: functional
[6] = Antitumor activity against […] cells xenografted in BALB/c mouse assessed as tumor growth inhibition at 20 mg/kg, ip administered for 14 days relative to control; assay type: functional; details: 336 h, time 14 day, read-out: TGI
[7] = molecular target: T2, MAP kinase-interacting serine/threonine-protein kinase 2; assay: as §1, with “Potency index, ratio of IC50 of eFT508 to IC50 of compound for inhibition” for “Inhibition”; details: time 50.0 min
Target sequence in this assay (Q9HBH9 whole entry, looked up, the tested form may be a part): as the sequence (Q9HBH9 whole entry, looked up, the tested form may be a part) above

[8] = molecular target: T1, MAP kinase-interacting serine/threonine-protein kinase 1; assay: as §2, with “Potency index, ratio of IC50 of eFT508 to IC50 of compound for inhibition” for “Inhibition”; details: time 50.0 min
Target sequence in this assay (Q9BUB5 whole entry, looked up): as the sequence (Q9BUB5 whole entry, looked up) above

Compound | IC50 (K562) [nM] | inhibition [1] [%] | inhibition at 20 µM (A549) [%] | IC50 (TMD8) [nM] | inhibition [2] [%] | IC50 [3] [nM] | IC50 [4] [nM] | inhibition at 20 µM [5] [%] | IC50 (MV4-11) [nM] | inhibition at 20 µM (HCT-116) [%] | inhibition at 20 µM (MDA-MB-435) [%] | inhibition in vivo at 20 mg/kg [6] [%] | Ratio IC50 [7] | Ratio IC50 [8]
Cc1cc(Nc2ccnc(N)n2)c(=O)n2c1C(=O)NC21CCCCC1 | > 20000 | 52.7 | 22.6 | > 20000 | 66.3 | 228 | 390 | 35 | > 20000 | 30.7 | 25.8 | – | – | –
CC(=O)N1CCN(c2cc(Nc3cc(C)c4n(c3=O)C3(CCCCC3)NC4=O)ncn2)CC1 | > 20000 | 73.3 | 28.8 | 8330 | 86.9 | 63.8 | 68.9 | 46.7 | > 20000 | 28.9 | 16 | – | – | –
Cc1cc(Nc2ccncn2)c(=O)n2c1C(=O)NC21CCCCC1 | 14200 | 82.2 | 40.5 | 6220 | 97.3 | 8.3 | 10.5 | 48.3 | > 20000 | 40.1 | 52.4 | – | – | –
Cc1cc(Nc2cc(NC3CCNCC3)ncn2)c(=O)n2c1C(=O)NC21CCCCC1 | > 20000 | 66.4 | 43.9 | 11000 | 75.8 | 49.8 | 55.2 | 18.5 | 18500 | 35.2 | 59.2 | – | – | –
Cc1cc(Nc2cc(N3CCNCC3)ncn2)c(=O)n2c1C(=O)NC21CCCCC1 | 8780 | 66.5 | 24.6 | 1810 | 87.7 | 18.3 | 20.7 | 18.8 | 11000 | 59.9 | 35.2 | – | – | –
Cc1cc(Nc2ccncc2)c(=O)n2c1C(=O)NC21CCCCC1 | > 20000 | 60.7 | 23.1 | > 20000 | 88.3 | 138 | 240 | 24 | > 20000 | 12.9 | 48.6 | – | – | –
Cc1cc(Nc2cc(N)ncn2)c(=O)n2c1C(=O)NC21CCCCC1 [TOMIVOSERTIB] | 13500 | 87.8 | 40.6 | 2530 | 98.8 | – | – | 43.1 | 14500 | 52.7 | 49.2 | 59 | – | –
Cc1cc(Nc2cc(N3CCN(CCN(C)C)CC3)ncn2)c(=O)n2c1C(=O)NC21CCCCC1 | 13000 | 77.2 | 48.4 | 1920 | 89 | 7.5 | 8.7 | 40.5 | 9640 | 30.5 | 35.2 | – | 2 | 2
Cc1cc(Nc2ccnnc2)c(=O)n2c1C(=O)NC21CCCCC1 | > 20000 | 59.8 | 14 | 8780 | 70.3 | 162 | 160 | 24.3 | 13300 | 22.7 | 33 | – | – | –
